Test systems include NCI-H522 lung; SK-MEL-2 melanoma; U251 CNS; MALME-3M melanoma; SK-MEL-5 melanoma; OVCAR-8 ovarian; MDA-MB-231 breast; DU-145 prostate; 786-0 renal; ACHN renal.
Holding throughout (test): NCI anticancer screen, dose series, 48 h

The structures appear in SMILES notation.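 Test compounds were applied to cells in 96-well plates for 48 hours at 5 doses. GI50 = concentration required for 50% inhibition of growth. At the TGI there is no net growth.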 Some results are limits rather than exact numbers.

For `Cn1cnc([N+](=O)[O-])c1S(=O)(=O)Oc1ccccc1`, the GI50 was 0.759 µM with NCI-H522 lung; 15.5 µM in the test with SK-MEL-2 melanoma; 23.5 µM in the test on U251 CNS; 2.14 µM with MALME-3M melanoma; 17.3 µM in the test on SK-MEL-5 melanoma; 22.6 µM in the test with OVCAR-8 ovarian. The GI50 in the test with MDA-MB-231 breast is 15.5 µM; in the test on DU-145 prostate it was 5.6 µM; with 786-0 renal, 25.1 µM; with ACHN renal, 1.8 µM. Moreover, the TGI is 2.3 µM in the test with NCI-H522 lung; 40.9 µM in the test on SK-MEL-2 melanoma; > 66.3 µM in the test on U251 CNS; 4.32 µM in the test on MALME-3M melanoma; 34.2 µM in the test on SK-MEL-5 melanoma; > 92.7 µM in the test on OVCAR-8 ovarian. Also, the TGI amounted to 47.9 µM with MDA-MB-231 breast, 17 µM in the test on DU-145 prostate, 55.6 µM with 786-0 renal and 3.37 µM in the test with ACHN renal.
For `Nc1nccc2c1ccn2-c1ccc(NC(=O)c2ccc(N3CCOCC3)c(C(F)(F)F)c2)cc1`, the GI50 was 1.12 µM in the test with NCI-H522 lung; 1.11 µM with SK-MEL-2 melanoma; 0.341 µM in the test on U251 CNS; 1.58 µM in the test on MALME-3M melanoma; 0.944 µM with SK-MEL-5 melanoma; 3.47 µM in the test on OVCAR-8 ovarian. Also, the GI50 with MDA-MB-231 breast is 0.346 µM; in the test on DU-145 prostate, 2.66 µM; with 786-0 renal, 0.207 µM; in the test on ACHN renal, 0.928 µM. In addition, the TGI in the test with NCI-H522 lung was 6.71 µM; in the test on SK-MEL-2 melanoma, 5.49 µM; with U251 CNS, 5.19 µM; in the test with MALME-3M melanoma, 6.71 µM; in the test on SK-MEL-5 melanoma, 2.28 µM; in the test on OVCAR-8 ovarian, 19.6 µM. Also, the TGI with MDA-MB-231 breast was 1.47 µM; in the test on DU-145 prostate, 20.5 µM; in the test with 786-0 renal it was 0.529 µM; with ACHN renal it was 16.3 µM.
`CC(=O)OC12c3ccccc3-c3ccccc3C1C1C(=O)N(C)C(=O)C12Cl` (stereo not given): the TGI with NCI-H522 lung, in the test on SK-MEL-2 melanoma, in the test on U251 CNS, in the test on MALME-3M melanoma, in the test on SK-MEL-5 melanoma and with OVCAR-8 ovarian was > 10 µM in each case. Besides, the TGI with MDA-MB-231 breast, in the test on DU-145 prostate, in the test with 786-0 renal and in the test with ACHN renal was > 10 µM in each case.
As to `CC(CC(=O)O)C(C(=O)O)C(=O)O` (stereo not given), the TGI with NCI-H522 lung, in the test on SK-MEL-2 melanoma, with U251 CNS, in the test with MALME-3M melanoma, in the test with SK-MEL-5 melanoma and in the test on OVCAR-8 ovarian was > 100 µM throughout. For the same compound, the TGI in the test on MDA-MB-231 breast, in the test on DU-145 prostate, in the test with 786-0 renal and in the test with ACHN renal was > 100 µM throughout.
Turning to `COc1ccncc1C#Cc1cncc(C(=O)Nc2ccc(CN3CCN(C)CC3)c(C(F)(F)F)c2)c1`, the GI50 in the test with NCI-H522 lung is 11.4 µM; in the test on SK-MEL-2 melanoma, 13.3 µM; with U251 CNS it was 35.6 µM; in the test with MALME-3M melanoma, 4.3 µM; with SK-MEL-5 melanoma, 39 µM; with OVCAR-8 ovarian, 27.1 µM. Besides, the GI50 with MDA-MB-231 breast is 7.71 µM; in the test on DU-145 prostate, 25.7 µM; in the test with 786-0 renal it was 35.8 µM; with ACHN renal it was 19.3 µM. Also, the TGI in the test with NCI-H522 lung was 46 µM; with SK-MEL-2 melanoma, 48.3 µM; in the test with U251 CNS it was > 100 µM; in the test with MALME-3M melanoma it was 23.3 µM; with SK-MEL-5 melanoma, > 100 µM; in the test on OVCAR-8 ovarian, > 100 µM. In addition, the TGI with MDA-MB-231 breast is 85.4 µM; in the test with DU-145 prostate it was > 100 µM; with 786-0 renal, > 100 µM; in the test on ACHN renal, > 100 µM.
Take `O=C(CC(O)(C(F)(F)F)C(F)(F)F)c1cc(CC(=O)C(O)(C(F)(F)F)C(F)(F)F)cc(CC(=O)C(O)(C(F)(F)F)C(F)(F)F)c1`: the TGI in the test with NCI-H522 lung worked out at 4.59 µM; in the test on SK-MEL-2 melanoma, 3.71 µM; with U251 CNS, 6.4 µM; with MALME-3M melanoma, 6.33 µM; in the test with SK-MEL-5 melanoma it was 3.04 µM; with OVCAR-8 ovarian, 6.91 µM. Further, the TGI with MDA-MB-231 breast was 3.3 µM; in the test on DU-145 prostate, > 10 µM; in the test on 786-0 renal it was 4.53 µM; in the test on ACHN renal it was > 6.02 µM.
With `C=CCCCCCCCCCCC1(O)C=CC2=[N+](CCCCCN=C(N)N)CCCN21` (stereo not given), the GI50 is 3.6 µM in the test with NCI-H522 lung; 21.3 µM in the test with SK-MEL-2 melanoma; 1.49 µM with U251 CNS; 2.52 µM in the test with MALME-3M melanoma; 9.93 µM in the test on SK-MEL-5 melanoma; 7.24 µM with OVCAR-8 ovarian. Besides, the GI50 was 9.98 µM in the test on MDA-MB-231 breast, 12.2 µM with DU-145 prostate, 7.47 µM in the test on 786-0 renal and 11.5 µM in the test on ACHN renal. Also, the TGI in the test on NCI-H522 lung came out at 18.4 µM; in the test with SK-MEL-2 melanoma, 47.2 µM; in the test with U251 CNS, 13.9 µM; with MALME-3M melanoma it was 10.9 µM; in the test with SK-MEL-5 melanoma, 25.1 µM; in the test with OVCAR-8 ovarian it was 26.1 µM. For the same compound, the TGI in the test on MDA-MB-231 breast amounted to 30.2 µM; with DU-145 prostate, 26.6 µM; with 786-0 renal it was 29.8 µM; with ACHN renal, 24.5 µM.
Consider `CCN1CCN=c2c3cc(OC)ccc3n3cnc4ccc1c2c43`, for which the TGI in the test on NCI-H522 lung amounted to 0.207 µM; in the test on SK-MEL-2 melanoma it was 0.808 µM; in the test with U251 CNS, 1.05 µM; in the test with MALME-3M melanoma it was 1.1 µM; in the test on SK-MEL-5 melanoma, 0.784 µM; with OVCAR-8 ovarian it was 1.4 µM. Further, the TGI in the test on MDA-MB-231 breast was 0.814 µM; with DU-145 prostate, 2.73 µM; in the test with 786-0 renal, 0.394 µM; in the test on ACHN renal it was 0.792 µM.
Turning to `Cn1cc(C2=C(c3cn(C)c4cc(C(N)=O)ccc34)C(=O)NC2=O)c2ccccc21`, the GI50 with NCI-H522 lung was 0.471 µM; in the test on SK-MEL-2 melanoma it was 1.44 µM; with U251 CNS it was 1.04 µM; with MALME-3M melanoma, 4.2 µM; with SK-MEL-5 melanoma, 0.751 µM; with OVCAR-8 ovarian, 1.67 µM. Further, the GI50 with MDA-MB-231 breast was 2.88 µM; in the test on DU-145 prostate it was 0.987 µM; in the test with 786-0 renal, 1.81 µM; in the test on ACHN renal, 2.64 µM. The TGI was 3.2 µM in the test with NCI-H522 lung; > 16.1 µM in the test on SK-MEL-2 melanoma; > 25 µM with U251 CNS; > 25 µM in the test on MALME-3M melanoma; 3.39 µM with SK-MEL-5 melanoma; > 25 µM in the test with OVCAR-8 ovarian. The TGI was 19.9 µM in the test with MDA-MB-231 breast, > 10.2 µM in the test on DU-145 prostate, 13.7 µM in the test on 786-0 renal and > 25 µM in the test with ACHN renal.
